Measured values taken from patent US11198710B2, “Transgenic plant having herbicide resistance” (priority 2016, dated 2021).

Tests used:
OsGSTF5 = experiment: Pyroxasulfone metabolizing activity based on fatty acid content in cultured rice cells; assay type: cell-based; conditions: cultured rice cells with OsGSTF5 gene; 10^−6 M treatment group
Experimental: (§1) The transgenic cultured rice cells thus prepared were used for liquid culture in the presence of pyroxasulfone. Pyroxasulfone was added to the liquid medium as an acetone solution. The final acetone concentration was 0.1%. When liquid culture was carried out, cultured rice cells transformed with KLB-279 (a plasmid comprising Act1p (rice actin 1 promoter)::sGFP::NOSt incorporated into the MCS of PalSelect R-4) were designated as the control samples. Liquid culture was carried out as described below. […]
(§2) Fatty acid was extracted using undecenoic acid (C11:1) as an internal standard. As analytical standards, Supelco FAME mix containing C14:0, C16:0, C16:1, C18:0, C18:1, C18:2, C18:3, C20:0, C22:0, C22:1, and C24:0 and other fatty acid methyl esters (C11:1, C15:0, C20:1, and C26:0) were used, and calibration curves thereof were prepared, followed by quantification. […] Quantitative and qualitative analyses were carried out as methyl esters, although fatty acid methyl esters were converted into fatty acids at the time of quantitative analysis. […]

OsGSTU5 = experiment: as above; assay type: cell-based; conditions: cultured rice cells with OsGSTU5 gene; 10^−6 M treatment group
Experimental: as §1, §2

[1] = system: transgenic rapeseed plants comprising the TaQ8GTC0 gene; experiment: Rapeseed sensitivity test 1 (post-sowing/pre-emergence soil treatment), transgenic; assay type: in vivo, Brassica napus
Experimental: Wild-type rapeseed plants (variety: Westar) and transgenic rapeseed plants comprising the wheat GST gene introduced therein were subjected to Rapeseed sensitivity test 1 in plastic pots (length: 8 cm; width: 8 cm; height: 6 cm). The test was carried out in Fujino soil (sandy loam soil), and 4 seeds of wild-type rapeseed and 8 seeds of transgenic rapeseed were sown in each pot (sowing depth: 1 cm). Water dispersible granules containing 50% pyroxasulfone were applied at 5 different doses of 1, 4, 16, 63, and 250 g a.i./ha (n=3). Immediately after pyroxasulfone treatment, about 1 mm of rain was fallen with the use of artificial rainfall device, and water was supplied from the bottom of the pots. Thereafter, water was supplied from the bottom of the pot when the soil surface was dried in the pot, according to need.
The difference in the sensitivity of rapeseed to pyroxasulfone applied pre-emergence was examined (temperature: 22° C., fluorescent light), and whether or not the transgenic rapeseed plant comprising wheat GST had pyroxasulfone resistance was evaluated in terms of the plant height, the herbicidal symptoms, and the cotyledon growth. Specifically, heights of the plants were measured 2 weeks after seeds sowing of rapeseed and pyroxasulfone application, and the inhibition was assessed by comparison to control plants grown in the absence of pyroxauslfone (n=4 to 12). In FIGS. 37 to 39, “TaGST” stands for a transgenic rapeseed plant comprising the TaQ8GTC0 gene. Values in the table in FIG. 38 are expressed as the mean±standard deviation (n=4 to 12).

ZmM16901 = biological target: T1, ZmM16901 (Zea mays, UniProt P12653); experiment: Pyroxasulfone metabolizing activity based on fatty acid content in cultured rice cells; assay type: cell-based, maize; conditions: cultured rice cells with ZmM16901 gene; 10^−7M or 10^−6M pyroxasulfone, liquid culture 14 to 17 days
T1 construct: expressed in transfected cells; host or cells: cultured rice cells (Agrobacterium EHA105, PalSelect R-4-GST)
Experimental: (§3) The transgenic cultured rice cells thus prepared were used for liquid culture in the presence of pyroxasulfone. Pyroxasulfone was added to the liquid medium as an acetone solution. The final acetone concentration was 0.1%. When liquid culture was carried out, cultured rice cells transformed with KLB-279 (a plasmid comprising Act1p (rice actin 1 promoter)::sGFP::NOSt incorporated into the MCS of PalSelect R-4) were designated as the control samples. Liquid culture was carried out as described below.
(§4) A bag of mixed salts for Murashige-Skoog medium (MS inorganic salts), 1 ml of 10 mg/ml thiamin hydrochloride, 1 ml of 5 mg/ml nicotinic acid, 1 ml of 10 mg/ml pyridoxine hydrochloride, 1 ml of 2 mg/ml glycine, 1 ml of 0.2 mg/ml 2,4-D, 30 g of sucrose, and 1 ml of 50 mg/ml myo-inositol were added into a 1-liter beaker, a pH was adjusted to 5.7, and the volume was precisely adjusted to 1,000 nil with the addition of distilled water, followed by autoclave. After 0.05 ml of pyroxasulfone was added to a 200-ml erlenmeyer flask containing 50 ml of the liquid medium, about 0.5 g of the control cultured rice cells proliferated in a solid medium of the same composition as described above further supplemented with 3 g of gellan gum and 0.25 μM BS or about 0.5 g of the transgenic cultured rice cells prepared as described above were added to the liquid medium, and culture was carried out for 14 to 17 days. After the completion of culture, the liquid medium was removed, and cultured rice cells were recovered.
(§5) One month after the transformation, cultured rice cells comprising the GST genes introduced therein were selected with the use of 0.25 μM bispyribac sodium (BS). Subsequently, the fresh cultured rice cells proliferated in the selection medium were mass-cultured in a conical beaker for approximately 1 month and then used for liquid culture in a pyroxasulfone-containing medium. When conducting liquid culture, the concentration was adjusted to 10^−7M or 10^−6M, so that pyroxasulfone would influence the fatty acid content in the cultured rice cells (Y. Tanetani et al., Pestic. Biochem. Physiol., 95, 47-55, 2009). […]
as §2

ZmQ9ZP61 = experiment: as above; assay type: cell-based, maize; conditions: cultured rice cells with ZmQ9ZP61 gene; 10^−7M or 10^−6M pyroxasulfone, liquid culture 14 to 17 days
Experimental: as §3, §4, §5, §2

ZmB6T8R4 = experiment: as above; assay type: cell-based, maize; conditions: cultured rice cells with ZmB6T8R4 gene; 10^−7M or 10^−6M pyroxasulfone, liquid culture 14 to 17 days
Experimental: as §3, §4, §5, §2

ZmY12862 = experiment: as above; assay type: cell-based, maize; conditions: cultured rice cells with ZmY12862 gene; 10^−7M or 10^−6M pyroxasulfone, liquid culture 14 to 17 days
Experimental: as §3, §4, §5, §2

T1 sequence (P12653 whole entry): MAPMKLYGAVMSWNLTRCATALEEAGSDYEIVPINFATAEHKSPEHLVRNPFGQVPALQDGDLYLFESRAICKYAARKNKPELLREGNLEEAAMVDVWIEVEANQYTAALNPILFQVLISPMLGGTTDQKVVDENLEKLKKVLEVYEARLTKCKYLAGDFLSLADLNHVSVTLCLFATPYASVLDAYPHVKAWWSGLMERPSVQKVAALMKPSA

**Q.** Which “pyroxasulfone metabolizing activity (C15:0 and VLCFA contents)” value (shortened to “pyroxasulfone metabolizing activity”) (OsGSTF5) does the source give for `Cn1nc(C(F)(F)F)c(CS(=O)(=O)C2=NOC(C)(C)C2)c1OC(F)F` [Pyroxasulfone, 3-[5-(difluoromethoxy)-1-methyl-3-(trifluoromethyl)pyrazol-4-ylmethylsulfonyl]-4,5-dihydro-5,5-dimethyl-1,2-oxazole] here?
**A.** no pyroxasulfone metabolizing activity

**Q.** What about the “pyroxasulfone metabolizing activity” value (OsGSTU5) of the same compound?
**A.** no pyroxasulfone metabolizing activity

**Q.** And the cotyledon growth ([1]; 250 g a.i./ha)?
**A.** grew to a certain extent

**Q.** And the inhibition at 16 g/ha ([1]; Brassica napus, 336 h, 16 g a.i./ha, 2 weeks after sowing and application, 22° C., read-out: shoot growth inhibition (plant height))?
**A.** 48.2%

**Q.** What about the “herbicidal symptoms (cotyledons dark green)” value ([1]; pre-emergence soil treatment, doses up to 250 g a.i./ha) of the same compound?
**A.** not detected

**Q.** And the “pyroxasulfone metabolizing activity” value (ZmM16901)?
**A.** no pyroxasulfone metabolizing activity

**Q.** And the “pyroxasulfone metabolizing activity” value (ZmQ9ZP61)?
**A.** no pyroxasulfone metabolizing activity

**Q.** What about the “pyroxasulfone metabolizing activity” value (ZmB6T8R4) of the same compound?
**A.** no pyroxasulfone metabolizing activity

**Q.** What about the “pyroxasulfone metabolizing activity” value (ZmY12862) of the same compound?
**A.** no pyroxasulfone metabolizing activity
